What was measured:
[1] = test system: MRC-5 (normal lung fibroblasts); experiment: WST-1 cytotoxicity assay, MRC-5; type: cell-based; details: Homo sapiens, MRC5; c = 10 μM, 48 h, percent of proliferation of untreated control cells; read-out: Cell proliferation, MRC-5
From the text: (§1) Selected human tumor and non-tumor cell lines {Jurkat (acute T cell leukemia), MOLT-4 (acute lymphoblastic leukemia), A549 (lung carcinoma), HT-29 (colorectal adenocarcinoma), PANC-1 (pancreas epithelioid carcinoma), A2780 (ovarian carcinoma), HeLa (cervix adenocarcinoma), MCF-7 (breast adenocarcinoma), SAOS-2 (osteosarcoma) and MRC-5 (normal lung fibroblasts)} were purchased from either ATCC (Manassas, VA, USA) or Sigma-Aldrich (St. Louis, MO, USA) and cultured according to the provider’s culture method guidelines. […] Cells in the maximum range of either 10 passages for primary cell line (MRC-5), or in the maximum range of 20 passages for cancer cell lines (Jurkat, MOLT-4, A549, HT-29, PANC-1, A2780, HeLa, MCF-7 and SAOS-2) and in an exponential growth phase were used for this study.
(§2) The WST-1 (Roche, Mannheim, Germany) reagent was used to determine the cytostatic effect of the test compounds. WST-1 is designed for the spectrophotometric quantification of cell proliferation, growth, viability and chemosensitivity in cell populations using a 96-well-plate format (Sigma, St. Louis, MO, USA). The principle of WST-1 is based on photometric detection of the reduction of tetrazolium salt to a colored formazan product. The cells were seeded at a previously established optimal density (30,000 Jurkat, 25,000 MOLT-4, 500 A549, 1500 HT-29, 2000 PANC-1, 5000 A2780, 500 HeLa, 1500 MCF-7, 2000 SAOS-2 and 2000 MRC-5 cells/well) in 100 µL of culture medium, and adherent cells were allowed to reattach overnight. Thereafter, the cells were treated with 100 µL of either corresponding alkaloids or doxorubicin stock solutions to obtain the desired concentrations and incubated in 5% CO2 at 37 °C. WST-1 reagent diluted 4-fold with PBS (50 µL) was added 48 h after treatment. Absorbance was measured after 3 h incubation with WST-1 at 440 nm. The measurements were performed in a Tecan Infinite M200 spectrometer (Tecan Group, Männedorf, Switzerland). All experiments were performed at least three times with triplicate measurements at each drug concentration per experiment. The viability was quantified as described previously according to the following formula: (%) viability = (Asample − Ablank)/(Acontrol − Ablank) × 100, where A is the absorbance of the employed WST-1 formazan measured at 440 nm. The viability of the treated cells was normalized to the viability of cells treated with 0.1% DMSO (Sigma-Aldrich) as a vehicle control.

[2] = test system: HeLa (cervix adenocarcinoma); experiment: WST-1 cytotoxicity assay, HeLa; type: cell-based; details: Homo sapiens, c = 10 μM, 48 h, percent of proliferation of untreated control cells, read-out: Cell proliferation, HeLa
From the text: as §1, §2

[3] = test system: MCF-7 (breast adenocarcinoma); experiment: WST-1 cytotoxicity assay, MCF-7; type: cell-based; details: Homo sapiens, MCF7; c = 10 μM, 48 h, percent of proliferation of untreated control cells; read-out: Cell proliferation, MCF-7
From the text: as §1, §2

[4] = test system: PANC-1 (pancreas epithelioid carcinoma); experiment: WST-1 cytotoxicity assay, PANC-1; type: cell-based; details: Homo sapiens, c = 10 μM, 48 h, percent of proliferation of untreated control cells, read-out: Cell proliferation, PANC-1
From the text: as §1, §2

hBuChE = hBuChE (Homo sapiens, UniProt P06276); experiment: biochemical; type: biochemical; details: mean ± SEM of three independent measurements, each in triplicate; read-out: hBuChE IC50
Description: (§3) The hAChE and hBuChE activities were determined using a modified method of Ellman with acetylthiocholine iodide (ATChI) and butyrylthiocholine iodide (BuTChI) as substrates, respectively.

hAChE = hAChE (Homo sapiens, UniProt P22303); experiment: biochemical; type: biochemical; details: for IC50: mean ± SEM of three independent measurements, each in triplicate; for SI for hAChE: selectivity index, ratio hBuChE IC50/hAChE IC50
Description: as §3

[5] = test system: Jurkat (acute T cell leukemia); experiment: WST-1 cytotoxicity assay, Jurkat; type: cell-based; details: Homo sapiens, c = 10 μM, 48 h, percent of proliferation of untreated control cells
From the text: as §1, §2

A549 (lung carcinoma) = experiment: WST-1 cytotoxicity assay, A549; type: cell-based; details: Homo sapiens, c = 10 μM, 48 h, percent of proliferation of untreated control cells, read-out: Cell proliferation, A549
From the text: as §1, §2

[6] = test system: HT-29 (colorectal adenocarcinoma); experiment: WST-1 cytotoxicity assay, HT-29; type: cell-based; details: Homo sapiens, c = 10 μM, 48 h, percent of proliferation of untreated control cells, read-out: Cell proliferation, HT-29
From the text: as §1, §2

[7] = test system: A2780 (ovarian carcinoma); experiment: WST-1 cytotoxicity assay, A2780; type: cell-based; details: Homo sapiens, c = 10 μM, 48 h, percent of proliferation of untreated control cells, read-out: Cell proliferation, A2780
From the text: as §1, §2

SAOS-2 (osteosarcoma) = experiment: WST-1 cytotoxicity assay, SAOS-2; type: cell-based; details: Homo sapiens, c = 10 μM, 48 h, percent of proliferation of untreated control cells, read-out: Cell proliferation, SAOS-2
From the text: as §1, §2

[8] = test system: MOLT-4 (acute lymphoblastic leukemia); experiment: WST-1 cytotoxicity assay, MOLT-4; type: cell-based; details: Homo sapiens, c = 10 μM, 48 h, percent of proliferation of untreated control cells, read-out: Cell proliferation, MOLT-4
From the text: as §1, §2

Sequence of hBuChE (P06276 29-602): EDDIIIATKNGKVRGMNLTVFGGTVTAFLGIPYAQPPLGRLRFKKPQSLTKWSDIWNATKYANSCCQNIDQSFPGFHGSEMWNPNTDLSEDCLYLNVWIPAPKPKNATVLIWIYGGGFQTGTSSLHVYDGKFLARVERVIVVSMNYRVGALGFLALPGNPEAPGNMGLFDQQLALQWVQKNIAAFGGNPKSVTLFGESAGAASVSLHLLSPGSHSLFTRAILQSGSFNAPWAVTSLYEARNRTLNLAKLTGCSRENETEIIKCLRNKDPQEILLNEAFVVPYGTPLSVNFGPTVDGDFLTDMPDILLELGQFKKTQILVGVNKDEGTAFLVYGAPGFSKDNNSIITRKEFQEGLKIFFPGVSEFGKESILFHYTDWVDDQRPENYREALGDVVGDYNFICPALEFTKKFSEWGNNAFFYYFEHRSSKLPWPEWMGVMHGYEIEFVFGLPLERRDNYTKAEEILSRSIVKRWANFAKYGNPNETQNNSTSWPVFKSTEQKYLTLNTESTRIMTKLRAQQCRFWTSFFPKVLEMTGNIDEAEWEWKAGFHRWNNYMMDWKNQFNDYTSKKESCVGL
Sequence of hAChE (P22303 32-614): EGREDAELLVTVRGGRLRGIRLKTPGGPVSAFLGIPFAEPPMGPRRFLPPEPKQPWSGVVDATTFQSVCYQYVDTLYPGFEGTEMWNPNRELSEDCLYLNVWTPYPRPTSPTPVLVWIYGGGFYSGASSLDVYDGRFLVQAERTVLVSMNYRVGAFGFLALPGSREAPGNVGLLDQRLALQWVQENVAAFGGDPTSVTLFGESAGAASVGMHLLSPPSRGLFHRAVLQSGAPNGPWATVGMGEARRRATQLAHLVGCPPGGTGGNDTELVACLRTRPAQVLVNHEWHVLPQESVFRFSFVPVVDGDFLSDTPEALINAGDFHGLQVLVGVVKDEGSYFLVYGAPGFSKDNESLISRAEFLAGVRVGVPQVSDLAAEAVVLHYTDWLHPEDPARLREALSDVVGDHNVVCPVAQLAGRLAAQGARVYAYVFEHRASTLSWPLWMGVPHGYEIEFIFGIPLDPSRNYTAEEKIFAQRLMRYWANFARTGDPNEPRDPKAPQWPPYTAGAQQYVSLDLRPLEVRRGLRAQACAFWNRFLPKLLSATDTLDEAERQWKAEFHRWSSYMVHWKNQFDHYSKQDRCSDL

SMILES: CCCCCC(=O)OC1CN2Cc3cc4c(cc3C13C=CC(OC)CC23)OCO4 (stereo not shown) [Compound 1e, 11-O-Hexanoylhaemanthamine]
- activity at 10 µM [1]: 96 ± 4%
- activity at 10 µM [2]: 98 ± 3%
- activity at 10 µM [3]: 95 ± 4%
- activity at 10 µM [4]: 96 ± 4%
- IC50 (hBuChE): 273 ± 18 µM
- IC50 (hAChE): > 500 µM
- SI for hAChE (hAChE): < 0.5
- activity at 10 µM [5]: 100 ± 7%
- activity at 10 µM (A549 (lung carcinoma)): 105 ± 9%
- activity at 10 µM [6]: 100 ± 3%
- activity at 10 µM [7]: 106 ± 5%
- activity at 10 µM (SAOS-2 (osteosarcoma)): 96 ± 8%
- viability at 10 µM [8]: 97 ± 3%

SMILES: CCCCC(=O)OC1CN2Cc3cc4c(cc3C13C=CC(OC)CC23)OCO4 (stereo not shown) [Compound 1d, 11-O-Pentanoylhaemanthamine]
- activity at 10 µM [1]: 89 ± 3%
- activity at 10 µM [2]: 93 ± 6%
- activity at 10 µM [3]: 93 ± 5%
- activity at 10 µM [4]: 88 ± 3%
- IC50 (hBuChE): > 500 µM
- IC50 (hAChE): > 500 µM
- activity at 10 µM [5]: 92 ± 1%
- activity at 10 µM (A549 (lung carcinoma)): 99 ± 7%
- activity at 10 µM [6]: 94 ± 4%
- activity at 10 µM [7]: 99 ± 2%
- activity at 10 µM (SAOS-2 (osteosarcoma)): 88 ± 6%
- viability at 10 µM [8]: 96 ± 1%

SMILES: COC1C=CC23c4cc5c(cc4CN(CC2OC(C)=O)C3C1)OCO5 (stereo not shown) [Compound 1a, 11-O-Acetylhaemanthamine]
- activity at 10 µM [1]: 113 ± 12%
- activity at 10 µM [2]: 83 ± 6%
- activity at 10 µM [3]: 97 ± 19%
- activity at 10 µM [4]: 114 ± 4%
- IC50 (hBuChE): > 500 µM
- IC50 (hAChE): > 500 µM
- activity at 10 µM [5]: 100 ± 13%
- activity at 10 µM (A549 (lung carcinoma)): 95 ± 9%
- activity at 10 µM [6]: 97 ± 10%
- activity at 10 µM [7]: 107 ± 17%
- activity at 10 µM (SAOS-2 (osteosarcoma)): 88 ± 6%
- viability at 10 µM [8]: 106 ± 9%

SMILES: COC1C=CC23c4cc5c(cc4CN(CC2OC(=O)c2cccc(Br)c2)C3C1)OCO5 (stereo not shown) [Compound 1i, 11-O-(3-Bromobenzoyl)haemanthamine]
- activity at 10 µM [1]: 105 ± 3%
- activity at 10 µM [2]: 93 ± 5%
- activity at 10 µM [3]: 105 ± 4%
- activity at 10 µM [4]: 108 ± 2%
- IC50 (hBuChE): 129 ± 25 µM
- IC50 (hAChE): 112 ± 21 µM
- SI for hAChE (hAChE): 1.1
- activity at 10 µM [5]: 133 ± 10%
- activity at 10 µM (A549 (lung carcinoma)): 122 ± 5%
- activity at 10 µM [6]: 120 ± 4%
- activity at 10 µM [7]: 162 ± 9%
- activity at 10 µM (SAOS-2 (osteosarcoma)): 97 ± 10%
- viability at 10 µM [8]: 115 ± 15%

SMILES: COc1cccc(C(=O)OC2CN3Cc4cc5c(cc4C24C=CC(OC)CC34)OCO5)c1 (stereo not shown) [Compound 1k, 11-O-(3-Methoxybenzoyl)haemanthamine]
- activity at 10 µM [1]: 92 ± 1%
- activity at 10 µM [2]: 84 ± 12%
- activity at 10 µM [3]: 100 ± 2%
- activity at 10 µM [4]: 88 ± 5%
- IC50 (hBuChE): 75.5 ± 12.5 µM
- IC50 (hAChE): 180 ± 17 µM
- SI for hAChE (hAChE): 0.4
- activity at 10 µM [5]: 83 ± 1%
- activity at 10 µM (A549 (lung carcinoma)): 102 ± 5%
- activity at 10 µM [6]: 93 ± 3%
- activity at 10 µM [7]: 108 ± 7%
- activity at 10 µM (SAOS-2 (osteosarcoma)): 89 ± 15%
- viability at 10 µM [8]: 94 ± 18%

SMILES: COc1cccc2c1C(=O)c1c(O)c3c(c(O)c1C2=O)C[C@@](O)(C(=O)CO)C[C@@H]3O[C@H]1C[C@H](N)[C@H](O)[C@H](C)O1 [DOX, Doxorubicin, reference compound]
- activity at 10 µM [1]: 40 ± 4%
- activity at 10 µM [2]: 7 ± 10%
- activity at 10 µM [3]: 41 ± 7%
- activity at 10 µM [4]: 59 ± 9%
- activity at 10 µM [5]: 0%
- activity at 10 µM (A549 (lung carcinoma)): 66 ± 16%
- activity at 10 µM [6]: 77 ± 12%
- activity at 10 µM [7]: 5 ± 1%
- activity at 10 µM (SAOS-2 (osteosarcoma)): 73 ± 8%
- viability at 10 µM [8]: 0%

From PMC6480460, “Derivatives of the β-Crinane Amaryllidaceae Alkaloid Haemanthamine as Multi-Target Directed Ligands for Alzheimer’s Disease” (Molecules, 2019)
